Legend:
GRα and GRβ [1] = assay: GRα and GRβ expression levels in Raji cells transfected with oligonucleotide (RT-PCR and PCR); format: cell-based, human; settings: for GAPDH / GRα / GRβ: expression level (band intensity), oligonucleotide 300 nM by electroporation, 24 h; for GAPDH: endogenous control; for GRα/GAPDH / GRβ/GAPDH / Relative value of GRα/GRβ: oligonucleotide 300 nM; for Relative value of GRα/GRβ: cells not transfected = 1;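 for GAPDH: mean of three independent experiments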
Procedure: Raji cells (manufactured by Japan Health Science Foundation) derived from human Burkitt's lymphoma were used in experiments.
Raji cells were cultured and maintained in RPMI1640 medium (manufactured by Gibco) at 37° C. in an atmosphere of 5% CO2, the RPMI1640 medium being supplemented with 10% fetal bovine serum (FBS) (manufactured by Filtoron), 100 U/ml penicillin, and 100 μg/ml streptomycin.
2×10^6 Raji cells were washed with phosphate-buffered saline (PBS) and suspended in 100 μl transfection reagent of an Amaxa cell line Nucleofector Kit V (manufactured by Lonza).
After the Raji cells were cultured in the above-described medium for 24 hours, the Raji cells were used for subsequent experiments.
The expression level of glyceraldehyde-3-phosphate dehydrogenase (GAPDH) was determined as an endogenous control.
After the Raji cells were washed with PBS, RNA was extracted using a FastPure RNA Kit (manufactured by Takara Bio Inc.), and reverse transcription was performed using a PrimeScript 1st strand cDNA synthesis kit (manufactured by Takara Bio Inc.). The obtained cDNA was amplified using Platinum Taq DNA polymerase (manufactured by Invitrogen) and PCR primers (having the base sequences shown in Table 2) specific for the gene of interest. The PCR conditions included: performing initial denaturation at 94° C. for 2 minutes; performing 35 cycles of denaturation (94° C. for 30 seconds), annealing (55° C. for 30 seconds), and extension (72° C. for 1 minute); and then performing final extension at 72° C. for 4 minutes.
After the PCR was performed, DNA was separated by […] electrophoresis on a 2% agarose gel containing ethidium bromide, and the intensity of bands was quantified using an image analyzer GEL PRINT 2000i/VGA (manufactured by Genomic Solutions).

Raji cells = assay: BrdU incorporation assay, glucocorticoid sensitivity of oligonucleotide-transfected Raji cells; format: cell-based, human; settings: for BrdU incorporation: absorbance at 450 nm
Procedure: In order to examine the change of glucocorticoid sensitivity of cells caused by introduction of oligonucleotide 1, cell proliferation was quantified by a 5-bromo-2′-deoxyuridine (BrdU) incorporation assay. Dexamethasone (manufactured by Biomol) was used as a glucocorticoid. The concentration of dexamethasone was set to varied concentrations of 0 μM (no addition), 0.1 μM, 0.5 μM, 1 μM, 5 μM, and 10 μM.
Raji cells were cultured in serum-free RPMI1640 medium for 12 hours to synchronize the cell cycle, and then re-suspended in RPMI1640 medium supplemented with serum and inoculated onto a 96-well plate.
After dexamethasone was added, the cells were cultured for 22 hours. Then, BrdU was added thereto, and the cells were cultured for another 2 hours. After centrifugation, the supernatant was discarded, and the cells were dried and fixed. The fixed cells were allowed to react with a peroxidase-labeled anti-BrdU antibody for 1 hour at room temperature. Subsequently, the cells were washed three times with PBS, and tetramethylbenzidine was added thereto. When noticeable coloring was observed, the reaction was stopped by adding H2SO4 (1M). After vigorous agitation, absorbance at 450 nm was measured using a plate reader.
Using the Raji cells to which dexamethasone was not added as a control, cell proliferation inhibitory rate (%) was calculated based on the relative ratio of the obtained absorbance. Here, statistical significance was assessed with one-way analysis of variance and multiple comparison. Tukey's multiple comparison was used for the multiple comparison. A significance level of P<0.05 (vs. no addition of oligonucleotide) was regarded as a significant difference.
BrdU incorporation assay was performed in the same manner as in the above, and alternation of the glucocorticoid sensitivity of the cells caused by the introduction of any one of oligonucleotides 2 to 5 was examined. Each experiment was carried out in quadruplicate. The values shown in Table 7 are average values thereof.

GRα and GRβ [2] = settings: HT-29 cells and MCF-7 cells; in words; cited from earlier work
ERα and ERβ = assay: Estrogen receptor expression level in Raji cells transfected with oligonucleotide 1 (RT-PCR and PCR); format: cell-based, human
Procedure: Estrogen receptor (ER) has two splice variants: ERα and ERβ. It is known that SRp30c is involved in regulating the splicing of ER mRNA.
The expressions levels of ERα and ERβ in Raji cells transfected with oligonucleotide 1 were determined by RT-PCR and PCR.
Raji cells transfected with oligonucleotide 1 were obtained in the same manner as in “Cell Culture” and “Introduction of Oligonucleotide into Cells” in Example 1. The oligonucleotide 1 concentration at the time of introduction into cells was 300 nM.
After the Raji cells were washed with PBS, RNA was extracted using a FASTPURE RNA Kit (manufactured by Takara Bio Inc.), and reverse transcription was performed using a PRIMESCRIPT 1st strand cDNA synthesis kit (manufactured by Takara Bio). The obtained cDNA was amplified using PLATINUM Taq DNA polymerase (manufactured by Invitrogen) and PCR primers (having the sequences shown in Table 8) specific for the gene of interest. The PCR conditions included: performing an initial denaturation at 94° C. for 2 minutes; performing 35 cycles of denaturation (94° C. for 30 seconds), annealing (55° C. for 30 seconds), and extension (72° C. for 1 minute); and performing a final extension at 72° C. for 4 minutes.
The expression level of GAPDH as an endogenous control was determined using PCR primers of SEQ ID Nos: 10 and 11.
After the PCR was performed, DNA was separated by […] electrophoresis on a 2% agarose gel containing ethidium bromide, and the intensity of bands was quantified using an image analyzer GEL PRINT 2000i/VGA (manufactured by Genomic Solutions Inc.).

[3] = dexamethasone 0.1 μM, quadruplicate (Table 7), label dexamethasone = no oligonucleotide transfected
[4] = dexamethasone 0.5 μM, quadruplicate (Table 7), label dexamethasone = no oligonucleotide transfected
[5] = dexamethasone 1 μM, quadruplicate (Table 7), label dexamethasone = no oligonucleotide transfected
[6] = dexamethasone 5 μM, quadruplicate (Table 7), label dexamethasone = no oligonucleotide transfected
[7] = expression level (band intensity), oligonucleotide 1 300 nM

“Oligonucleotide 5: an oligonucleotide having a base sequence represented by SEQ ID NO: 5 (5′-CAGATTTTTTTATTATGATGT-3′) (listed as DNA, chemistry not given here)” gave a GAPDH (GRα and GRβ [1]) of 3087.403, a GRα (GRα and GRβ [1]) of 3210.228 and a GRβ (GRα and GRβ [1]) of 4516.989. The GRα/GAPDH (GRα and GRβ [1]) was 1.041, the GRβ/GAPDH (GRα and GRβ [1]) was 1.461 and the “Relative value of GRα/GRβ” value (GRα and GRβ [1]) was 1.210. For the same compound, the “cell proliferation inhibitory rate” value (Raji cells; [3]) was 29.842%, the “cell proliferation inhibitory rate” value (Raji cells; [4]) was 26.632% and the “cell proliferation inhibitory rate” value (Raji cells; [5]) was 32.895%. For the same compound, the “cell proliferation inhibitory rate” value (Raji cells; [6]) was 36.053%.
“Oligonucleotide 2: an oligonucleotide having a base sequence represented by SEQ ID NO: 2 (5′-AAAAGGGCACAGCTTCTTTTCCCATTTAATGAAA-3′) (listed as DNA, chemistry not given here)” gave a GAPDH (GRα and GRβ [1]) of 3169.938, a GRα (GRα and GRβ [1]) of 3340.440 and a GRβ (GRα and GRβ [1]) of 4641.922. The GRα/GAPDH (GRα and GRβ [1]) was 1.054, the GRβ/GAPDH (GRα and GRβ [1]) was 1.467 and the “Relative value of GRα/GRβ” value (GRα and GRβ [1]) was 1.226. For the same compound, the “cell proliferation inhibitory rate” value (Raji cells; [3]) was 10.541%, the “cell proliferation inhibitory rate” value (Raji cells; [4]) was 19.044% and the “cell proliferation inhibitory rate” value (Raji cells; [5]) was 22.769%. The “cell proliferation inhibitory rate” value (Raji cells; [6]) was 36.402%.
Work on “Oligonucleotide 3: an oligonucleotide having a base sequence represented by SEQ ID NO: 3 (5′-TAAGATGACTTTCTTTTCCCCCACGTATCCT-3′) (listed as DNA, chemistry not given here)” yielded a GAPDH (GRα and GRβ [1]) of 3128.467, a GRα (GRα and GRβ [1]) of 3177.814 and a GRβ (GRα and GRβ [1]) of 4596.457. For the same compound, the GRα/GAPDH (GRα and GRβ [1]) was 1.015, the GRβ/GAPDH (GRα and GRβ [1]) was 1.471 and the “Relative value of GRα/GRβ” value (GRα and GRβ [1]) was 1.182. For the same compound, the “cell proliferation inhibitory rate” value (Raji cells; [3]) was 16.924%, the “cell proliferation inhibitory rate” value (Raji cells; [4]) was 34.134% and the “cell proliferation inhibitory rate” value (Raji cells; [5]) was 37.164%. For the same compound, the “cell proliferation inhibitory rate” value (Raji cells; [6]) was 48.256%.
In the case of `CC(/C=C/C(=O)NO)=C\[C@@H](C)C(=O)c1ccc(N(C)C)cc1` [trichostatin A], the “GRα and GRβ expression levels” value (GRα and GRβ [2]) is listed as “increase GRα expression levels while decreasing GRβ expression levels”.
“Oligonucleotide 1: an oligonucleotide having a base sequence represented by SEQ ID NO: 1 (5′-CTTTCTGGTTTTAACCACATAACATTCTATA-3′) (listed as DNA, chemistry not given here)” showed a GAPDH (GRα and GRβ [1]) of 3033.167, a GRα (GRα and GRβ [1]) of 3278.767 and a GRβ (GRα and GRβ [1]) of 4611.084. The GRα/GAPDH (GRα and GRβ [1]) was 1.082, the GRβ/GAPDH (GRα and GRβ [1]) was 1.519 and the “Relative value of GRα/GRβ” value (GRα and GRβ [1]) was 1.213. For the same compound, the “expression level of GRβ, concentration dependency” value (GRα and GRβ [1]; various concentrations of oligonucleotide 1) was “decreased the expression level of GRβ in a concentration-dependent manner”, the BrdU incorporation (Raji cells; dexamethasone 0 μM, triplicate) was 0.556 and the BrdU incorporation (Raji cells; dexamethasone 0.1 μM, triplicate, label dexamethasone = no oligonucleotide introduced) was 0.372. The BrdU incorporation (Raji cells; dexamethasone 0.5 μM, triplicate, label dexamethasone = no oligonucleotide introduced) was 0.286, the BrdU incorporation (Raji cells; dexamethasone 1 μM, triplicate, label dexamethasone = no oligonucleotide introduced) was 0.292 and the BrdU incorporation (Raji cells; dexamethasone 5 μM, triplicate, label dexamethasone = no oligonucleotide introduced) was 0.271. The BrdU incorporation (Raji cells; dexamethasone 10 μM, triplicate, label dexamethasone = no oligonucleotide introduced) was 0.279, the “cell proliferation inhibitory rate” value (Raji cells; dexamethasone 0.1 μM vs no dexamethasone, triplicate, label dexamethasone = no oligonucleotide introduced) was 32.874% and the “cell proliferation inhibitory rate” value (Raji cells; dexamethasone 0.5 μM vs no dexamethasone, triplicate, label dexamethasone = no oligonucleotide introduced) was 48.364%. For the same compound, the “cell proliferation inhibitory rate” value (Raji cells; dexamethasone 1 μM vs no dexamethasone, triplicate, label dexamethasone = no oligonucleotide introduced) was 47.553%, the “cell proliferation inhibitory rate” value (Raji cells; dexamethasone 5 μM vs no dexamethasone, triplicate, label dexamethasone = no oligonucleotide introduced) was 50.624% and the “cell proliferation inhibitory rate” value (Raji cells; dexamethasone 10 μM vs no dexamethasone, triplicate, label dexamethasone = no oligonucleotide introduced) was 49.526%. The “BrdU incorporation on addition of dexamethasone, compared to Raji cells not transfected” value (Raji cells; in words) was “significant reduction in BrdU incorporation”, the “cell proliferation inhibitory rate on addition of dexamethasone, compared to Raji cells not transfected” value (Raji cells; in words) was “significant increase in cell proliferation inhibitory rate” and the “glucocorticoid sensitivity of cells” value (Raji cells; in words) was “increased the glucocorticoid sensitivity of cells”. The GAPDH (ERα and ERβ; expression level (band intensity), endogenous control, oligonucleotide 1 300 nM) was 2476.113, the ERα (ERα and ERβ; [7]) was 2201.941 and the ERβ (ERα and ERβ; [7]) was 1299.820. For the same compound, the “regulation of the splicing of ER mRNA” value (ERα and ERβ; in words) was “does not affect the regulation of the splicing of ER mRNA”, the ERα/ERβ (ERα and ERβ; oligonucleotide 1 300 nM) was 1.694 and the ERα/GAPDH (ERα and ERβ; oligonucleotide 1 300 nM) was 0.889. The ERβ/GAPDH (ERα and ERβ; oligonucleotide 1 300 nM) was 0.525, the “Relative value of ERα/ERβ” value (ERα and ERβ; oligonucleotide 1 300 nM, cells not transfected = 1) was “approximately 1” and the “Relative value of ERα/ERβ” value (ERα and ERβ; oligonucleotide 1 300 nM, cells not transfected = 1, listed as 1) was 1.001.
For `Nc1ncn([C@H]2C[C@H](O)[C@@H](CO)O2)c(=O)n1` [5-aza-2′-deoxycytidine], the “GRα and GRβ expression levels” value (GRα and GRβ [2]) is listed as “increase GRα expression levels while decreasing GRβ expression levels”.
In the case of `CCCC(=O)[O-].[Na+]` [sodium butyrate], the “GRα and GRβ expression levels” value (GRα and GRβ [2]) is given as “increase GRα expression levels while decreasing GRβ expression levels”.

Source: patent US9234200B2, “Oligonucleotide, glucocorticoid sensitivity enhancer, pharmaceutical composition, and expression vector” (National University Corporation Tokyo University of …, priority 2011, dated 2016)
